Where two headings read alike, the source gives them in different places.
Legend:
Set-up in all cases: expressed in transfected cells; host or cells: HEK293T, transient
[1] = target: T1, 5-HT2A (Homo sapiens, UniProt P28223); assay: cell-based; settings: for Emax: read-out: 5-HT2A Gq Emax (% 5-HT), BRET, mean ± SEM
Procedure: (§1) After at least 18-24 hours, transfected cells were plated in poly-lysine coated 96-well white clear bottom cell culture plates in DMEM containing 1% dialyzed FBS at a density of 25-40,000 cells in 200 μL per well and incubated overnight. After approximately 20-24 hours, media was decanted and cells were washed with 60 μL of drug buffer (1×HBSS, 20 mM HEPES, pH 7.4), followed by 60 μL of drug buffer and pre-incubated in a humidified atmosphere at 37° C. before receiving drug stimulation. Drug stimulation was induced by adding 30 μL of a solution of drug (3X) diluted in McCorvy buffer (1×HBSS, 20 mM HEPES, pH 7.4, supplemented with 0.3% BSA fatty acid free, 0.03% ascorbic acid) and plates were incubated at the indicated time and temperature. Fifteen minutes before reading, 10 μL of the RLuc substrate, either coelenterazine h for β-Arrestin recruitment BRET^1 or coelenterazine 400a for Gq dissociation BRET^2 (Prolume/Nanolight, 5 μM final concentration) was addedper well. […] The BRET ratios of fluorescence/luminescence were calculated per well and were plotted as a function of drug concentration using Graphpad Prism 8 (Graphpad Software Inc., San Diego, CA).

[2] = target: T1, 5-HT2A; assay: cell-based; settings: for Emax: read-out: 5-HT2A β-arrestin Emax (% 5-HT), BRET, mean ± SEM
Procedure: as §1

[3] = target: 5-HT2B (Homo sapiens, UniProt P41595); assay: BRET Gq dissociation, 5-HT2B; assay type: cell-based
Procedure: After at least 18-24 hours, transfected cells were plated in poly-lysine coated 96-well white clear bottom cell culture plates in DMEM containing 1% dialyzed FBS at a density of 25-40,000 cells in 200 μL per well and incubated overnight. After approximately 20-24 hours, media was decanted and cells were washed with 60 μL of drug buffer (1×HBSS, 20 mM HEPES, pH 7.4), followed by 60 μL of drug buffer and pre-incubated in a humidified atmosphere at 37° C. before receiving drug stimulation. Drug stimulation was induced by adding 30 μL of a solution of drug (3X) diluted in McCorvy buffer (1×HBSS, 20 mM HEPES, pH 7.4, supplemented with 0.3% BSA fatty acid free, 0.03% ascorbic acid) and plates were incubated at the indicated time and temperature. Fifteen minutes before reading, 10 μL of the RLuc substrate, either coelenterazine h for β-Arrestin recruitment BRET^1 or coelenterazine 400a for Gq dissociation BRET^2 (Prolume/Nanolight, 5 μM final concentration) was addedper well. Plates were read for luminescence at 485 nm and fluorescent eYFP emission at 530 nm for BRET^1 and at 400 nm and fluorescent GFP2 emission at 510 nm for BRET2 at 1 second per well using a Mithras LB940 (Berthold). The BRET ratios of fluorescence/luminescence were calculated per well and were plotted as a function of drug concentration using Graphpad Prism 8 (Graphpad Software Inc., San Diego, CA).

[4] = target: T2, 5-HT2C (Homo sapiens, UniProt P28335); assay: BRET Gq dissociation, 5-HT2C; assay type: cell-based; settings: for Emax: read-out: 5-HT2C Gq Dissociation (BRET) EMAX ± SEM (%5-HT)
T2 sequence (P28335 33-458): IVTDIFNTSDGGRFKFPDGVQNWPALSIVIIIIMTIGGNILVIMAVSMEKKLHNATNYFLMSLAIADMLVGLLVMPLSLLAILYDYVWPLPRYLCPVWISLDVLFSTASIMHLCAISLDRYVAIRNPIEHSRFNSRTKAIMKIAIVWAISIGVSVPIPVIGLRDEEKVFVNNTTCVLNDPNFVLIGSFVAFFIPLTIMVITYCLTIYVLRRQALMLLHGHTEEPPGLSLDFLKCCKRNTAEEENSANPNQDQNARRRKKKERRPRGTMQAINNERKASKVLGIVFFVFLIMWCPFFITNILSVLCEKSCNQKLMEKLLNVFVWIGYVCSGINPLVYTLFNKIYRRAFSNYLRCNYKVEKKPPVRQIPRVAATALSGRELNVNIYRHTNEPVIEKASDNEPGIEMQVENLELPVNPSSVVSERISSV
Procedure: as §1

[5] = BRET, mean ± SEM, read-out: 5-HT2A Gq dissociation pEC50 (converted)
[6] = BRET, mean ± SEM, read-out: 5-HT2A β-arrestin recruitment pEC50 (converted)
[7] = read-out: 5-HT2C Gq Dissociation (BRET) pEC50 ± SEM (converted)

Sequence of 5-HT2B (P41595 whole entry): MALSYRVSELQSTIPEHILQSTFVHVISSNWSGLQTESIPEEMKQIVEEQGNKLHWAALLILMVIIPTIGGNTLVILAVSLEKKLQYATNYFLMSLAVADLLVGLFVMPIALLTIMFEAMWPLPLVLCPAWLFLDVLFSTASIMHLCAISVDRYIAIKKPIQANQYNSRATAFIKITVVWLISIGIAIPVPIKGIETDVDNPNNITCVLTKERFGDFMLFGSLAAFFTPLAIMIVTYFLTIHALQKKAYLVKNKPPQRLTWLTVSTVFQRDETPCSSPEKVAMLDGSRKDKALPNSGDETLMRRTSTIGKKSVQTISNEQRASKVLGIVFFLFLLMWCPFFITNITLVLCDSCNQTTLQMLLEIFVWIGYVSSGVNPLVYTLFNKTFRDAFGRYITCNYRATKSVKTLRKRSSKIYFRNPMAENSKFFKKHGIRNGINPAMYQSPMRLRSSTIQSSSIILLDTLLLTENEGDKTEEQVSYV
T1 sequence (P28223 whole entry): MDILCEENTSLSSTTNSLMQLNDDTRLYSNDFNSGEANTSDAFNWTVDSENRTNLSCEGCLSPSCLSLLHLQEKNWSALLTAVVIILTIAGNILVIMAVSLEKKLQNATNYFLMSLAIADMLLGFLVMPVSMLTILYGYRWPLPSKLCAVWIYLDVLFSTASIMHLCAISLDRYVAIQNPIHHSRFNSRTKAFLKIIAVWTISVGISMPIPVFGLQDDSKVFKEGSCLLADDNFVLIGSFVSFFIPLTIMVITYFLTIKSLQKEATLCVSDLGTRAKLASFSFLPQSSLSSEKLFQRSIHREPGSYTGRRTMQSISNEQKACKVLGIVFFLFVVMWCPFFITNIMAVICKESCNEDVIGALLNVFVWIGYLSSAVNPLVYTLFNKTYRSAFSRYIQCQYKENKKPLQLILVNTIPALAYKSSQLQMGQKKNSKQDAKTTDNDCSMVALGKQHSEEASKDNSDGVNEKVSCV

SMILES	EC50 [1, 5] [nM]	Emax [1] [%]	EC50 [2, 6] [nM]	Emax [2] [%]	EC50 [1] [nM]	5-HT2B Gq Dissociation (BRET) EMAX ± SEM (%5-HT) [3]	5-HT2B Gq Dissociation (BRET) pEC50 ± SEM [3]	Emax [4] [%]	EC50 [4, 7] [nM]	5-HT2A Gq Emax (% 5-HT) ([1]; BRET, mean ± SEM)	5-HT2A Gq dissociation pEC50 ([1]; BRET, mean ± SEM)	5-HT2A β-arrestin Emax (% 5-HT) ([2]; BRET, mean ± SEM)	5-HT2A β-arrestin recruitment pEC50 ([2]; BRET, mean ± SEM)	Emax ([3]; read-out: 5-HT2B Gq Dissociation (BRET) EMAX ± SEM (%5-HT)) [%]	EC50 ([3]; read-out: 5-HT2B Gq Dissociation (BRET) pEC50 ± SEM (converted)) [nM]	EC50 [2] [nM]	EC50 [4] [nM]
COc1cc(CCNC2CCc3cccc(O)c32)c(OC)cc1C (stereo not shown) [(84)]	2.69	71.9 ± 4.9	3.47	113 ± 4.3													
COc1cc(CCNCc2cccc3ccccc23)cc(OC)c1Br [(31), 2-(4-bromo-3,5-dimethoxyphenyl)-N-[(naphthalen-1-yl)-methyl]ethan-1-amine]		20.3 ± 1.9	35.5	50.8 ± 3.4	170	No activity	No activity	80.2 ± 2.2	41.7								
CN(C)CCc1c[nH]c2ccccc12 [DMT, reference compound]										76 ± 2	7.17 ± 0.07	64 ± 3	7.12 ± 0.13				
COc1cc(CCNCc2cccc(C)c2O)cc(OC)c1Br [(44)]	12	70.4 ± 1.2	11.2	66.1 ± 2.8		No activity	No activity	80.2 ± 2.1	7.08								
COc1cc(Br)cc(OC)c1CCNCc1cccc2ccccc12 [(32)]	3.89	33 ± 1.1	1.05	85.5 ± 2		No activity	No activity	81 ± 1.6	6.31								
COc1cc(CCNC2Cc3ccccc3C2)c(OC)cc1C [(85)]	17.8	53.5 ± 4.3	5.13	70.9 ± 5.1													
COc1cc(OC)c(OC)cc1CCNCc1ccccc1-c1ccco1 [(58)]	50.1	51.9 ± 2.2	56.2	112 ± 6.2				94 ± 4	14.1					37.6 ± 2	3.09		
COc1cc(Br)cc(OC)c1CC(C)NCc1cccc2ccccc12 (stereo not shown) [(33)]	31.6	36.6 ± 1.1	4.9	98.3 ± 3.3		No activity	No activity	80.3 ± 2.4	64.6								
COc1cc(Br)c(Br)c(OC)c1CCNCc1cccc(C)c1O [(45)]	2.24	70.5 ± 2	1.32	77.5 ± 6		No activity	No activity	81 ± 2.1	1.51								
COc1cc(CCNC2CCc3ccccc32)c(OC)cc1C (stereo not shown) [(83)]	6.31	50.7 ± 7	8.13	112 ± 11.5													
COc1cc(Br)ccc1CCNCc1cccc2ccccc12 [(36)]		26.3 ± 1.2		80.2 ± 3.1		No activity	No activity	76 ± 1.8	24.5								
COc1cc(OC)c(OC)cc1CCNCc1cccc2c1CCCC2 [(52)]	7.59	43.7 ± 1.1	1.78	65 ± 4.9		No activity	No activity	43.6 ± 3.8	34.7								
COc1cc(CCN)c(OC)cc1Br [Compound 2C-B, reference compound]						97.4 ± 1.4 %5-HT	7.90 ± 0.04			100.8 ± 0.9	8.92 ± 0.03	84.0 ± 1.0	8.62 ± 0.04				
COc1cc(OC)c(OC)cc1CCNCc1cccc2cnccc12 [(56)]	26.3	64.1 ± 1.5	17.4	75.8 ± 8.3		No activity	No activity	80.9 ± 3.4	126								
COc1cc(Cl)ccc1CCNCc1cccc2ccccc12 [(34)]		25.2 ± 2		83.6 ± 3.6		No activity	No activity	75.9 ± 1.7	38								
COc1cc(OC)c(OC)cc1CCNCc1cccc2cccnc12 [(54)]	11.2	54.3 ± 1.5	8.51	100 ± 3.5		No activity	No activity	90.5 ± 3.1	14.8								
COc1cc(OC)c(OC)cc1CCNCc1cccc(-c2ccccc2)c1 [(62)]		23.7 ± 2.1	56.2	112 ± 6.2	182	No activity	No activity	72.8 ± 5.2	219								
COc1cc(OC)c(OC)cc1CCNCc1cccc(Br)c1O [(48)]	20.4	53.6 ± 1.7	8.13	85 ± 4.8		No activity	No activity	69.2 ± 6.1	174								
COc1cc(Br)c(CCNCc2cccc(C)c2O)cc1OC [(43), 2-(((2-bromo-4,5-dimethoxyphenethyl)-amino)-methyl)-6-methylphenol]		65.4 ± 1.4		91.7 ± 3.4	6.46	No activity	No activity	75.4 ± 2								6.31	20.9
COc1cc(CCNCc2cccc3ccccc23)ccc1Cl [(40)]		29.9 ± 1.8		80.8 ± 3.8		No activity	No activity	87.8 ± 2	97.7								
COc1cc(Br)c(CCNCc2cccc3ccccc23)cc1OC [(30)]	42.7	32.3 ± 1.6	4.47	65.1 ± 3		No activity	No activity	81.4 ± 3.4	66.1								
COc1cc(CCNCc2ccccc2-c2ccccc2)c(OC)cc1C [25D-NBPh (28)]		23.2 ± 4.8		107 ± 4.7													
COc1cc(CCNCc2cccc3ccccc23)c(OC)cc1C [25D-N1-Nap (27)]		34.3 ± 2.9		75.5 ± 2.4													
